Measurements reported in patent US10005769B2, “2,3-dihydrobenzofuran-5YL compounds as DYRK kinase inhibitors” (4SC DISCOVERY GMBH, priority 2013, dated 2018).

Tests used:
[1] = target: DYRK1B (Homo sapiens (Human), UniProt Q9Y463); experiment: DYRK1B Kinase Assay (33P ATP, DYRKtide substrate, Reaction Biology Corp.); assay type: biochemical; details: 0.3 nM DYRK1B, 20 μM DYRKtide, 10 μM ATP, 25° C., 120 min
Protocol: The assay was carried out by Reaction Biology Corp., […], Pa., USA according to specifications by Reaction Biology Corp., as detailed herein below and further described in Anastassiadis et al., Nature Biotechnology, 29 (2011) 1039-1045. The substrate DYRKtide (synthetic peptide RRRFRPASPLRGPPK) was dissolved in freshly prepared Base Reaction Buffer (20 mM Hepes (pH 7.5), 10 mM MgCl2, 1 mM EGTA, 0.02% Brij35, 0.02 mg/ml BSA, 0.1 mM Na3VO4, 2 mM DTT, 1% DMSO) at a concentration of 20 μM. DYRK1B was added to the substrate solution in a concentration of 0.3 nM and gently mixed. Dilution series of the compounds according to the present invention in DMSO were prepared. Each dilution was added to a batch of the above reaction mix, followed 20 min later by addition of a mixture of ATP and ^33P ATP (specific activity 0.01 μCi/μl final) to a final concentration of 10 μM. Reactions were carried out at 25° C. for 120 min, followed by spotting the reactions onto P81 ion exchange filter paper. Unbound phosphate was removed by extensive washing of the filters in 0.75% phosphoric acid. […] IC50 values and curve fits were obtained using Prism (Graph Pad Software). DYRK1B used in the above assays are further described in the below table: [table] Exemplary compound dilution series, final concentrations of compound in the assay vessel; the individual concentrations and the range of concentrations covered by the dilution series may differ for each compound, as long as enough data points are obtained to determine the compound's IC50: DYRK 1[…].

[2] = tested on: Hedgehog signaling pathway (Gli Reporter - NIH3T3 cell line); experiment: Hedgehog Reporter Assay (Gli-Reporter, luciferase, mSHH stimulated); assay type: cell-based, murine; details: Mus musculus; Gli Reporter NIH3T3 cells, 1 μg/ml mSHH, 24 h
Protocol: In order to investigate the potency of test compounds to inhibit the Hedgehog signaling pathway, a Gli-Reporter assay was performed. The “Gli Reporter-NIH3T3” cell line contains the firefly luciferase gene under the control of Gli responsive elements stably integrated into murine NIH3T3 cells (cells purchased from AMS Biotechnology ltd., 184 Milton Park, Abingdon OX14 4SE, U.K.). The luciferase expression correlates with activation of the hedgehog signaling pathway. This cell line is validated for its response to stimulation with murine Sonic Hedgehog and to treatment with inhibitors of the hedgehog signaling pathway. A multiplexed viability assay was used to discriminate inhibition on the pathway activity from cell toxicity. Growth Medium: DMEM (Dulbecco's Modified Eagle Medium); 10% Fetal Calf Serum; 1% Penicillin/Streptomycin; 500 μg/ml Geneticin (G418 Stock 50 mg/ml). Assay Medium: Opti-MEM® Reduced Serum Medium; 0.5% Calf Serum; 1% non-essential amino acids; 1 mM Na-pyruvate; 10 mM HEPES; 1% Penicillin/Streptomycin. 25,000 cells per well were seeded into a white 96 well plate in 100 μl growth medium and incubated over night at 37° C. and 5% CO2. After removing the supernatant the test compounds and controls were added in different concentrations in a final volume of 45 μl and incubated for 1 h at 37° C. and 5% CO2. For the stimulation of the Hedgehog pathway 5 μl of 10 μg/ml concentrated murine SHH (or mSHH; murine sonic hedgehog protein) was added to the cells. A final concentration of 1 μg/ml mSHH and 0.1% DMSO was reached per well. After incubation for 24 h at 37° C. the cells were investigated for viability and reporter activity. Viability: For the determination of the viability of the treated cells the CellTiter-FluorTM Kit from Promega comprising the fluorogenic, cell-permeant peptide substrate ([…]-aminofluorocoumarin GF-AFC was used. Roughly, only proteases of viable cells are able to cleave the GF-AFC. By this cleavage the fluorescent AFC is set free and can be detected in a fluorescence reader. For this assay 10 μl of GF-AFC substrate (CellTiter-FluorTM, Promega #G6082) was diluted in 2 ml assay buffer from the CellTiter-FluorTM Kit and 10 μl of this dilution was added per well to the cells and incubated for 30 min at 37° C. The fluorescence was measured with an excitation of 380-400 nm and an emission of 505 nm. Reporter activity: The firefly luciferase reporter activity was detected with the ONE-GloTM Luciferase Assay System from Promega. For this assay 50 μl ONE-Glo luciferase reagent (Promega #E6120, contains cell lysis buffer and luciferin) was added to each well and incubated at room temperature for 5 min. Luminescence was detected in a plate reader and served as a measure for reporter activity.

Chain of DYRK1B (Q9Y463 whole entry): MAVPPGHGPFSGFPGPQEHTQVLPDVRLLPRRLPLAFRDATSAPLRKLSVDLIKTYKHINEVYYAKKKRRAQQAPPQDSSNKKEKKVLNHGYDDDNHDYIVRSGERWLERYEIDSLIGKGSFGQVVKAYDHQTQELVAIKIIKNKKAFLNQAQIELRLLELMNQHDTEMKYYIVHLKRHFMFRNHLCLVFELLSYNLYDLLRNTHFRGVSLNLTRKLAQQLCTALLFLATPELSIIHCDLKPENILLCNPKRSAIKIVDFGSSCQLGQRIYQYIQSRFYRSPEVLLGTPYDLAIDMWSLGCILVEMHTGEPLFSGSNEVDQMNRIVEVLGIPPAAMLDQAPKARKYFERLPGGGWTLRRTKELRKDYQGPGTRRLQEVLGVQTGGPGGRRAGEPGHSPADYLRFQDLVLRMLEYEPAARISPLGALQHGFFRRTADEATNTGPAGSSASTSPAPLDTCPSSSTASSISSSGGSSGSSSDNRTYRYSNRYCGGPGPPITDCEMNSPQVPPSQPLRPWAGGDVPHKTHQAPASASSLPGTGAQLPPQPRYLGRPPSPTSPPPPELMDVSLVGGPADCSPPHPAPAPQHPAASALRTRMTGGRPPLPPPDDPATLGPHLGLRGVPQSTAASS

Compound	IC50 [1]	IC50 [2]
O=C(Nc1ncc[nH]1)c1csc(-c2ccc3c(c2)CCO3)n1 [Compound 11, 2-(2,3-Dihydrobenzofuran-5-yl)-N-(1H-imidazol-2-yl)thiazole-4-carboxamide]	66.8 nM	1000 to 3000 nM
O=C(Nc1nc2c(C(F)(F)F)cccc2[nH]1)c1csc(-c2ccc3c(c2)CCO3)n1 [Compound 12, 2-(2,3-Dihydrobenzofuran-5-yl)-N-(4-(trifluoromethyl)-1H-benzo[d]imidazol-2-yl)thiazole-4-carboxamide]	156 nM	3000 to 10000 nM
O=C(Nc1nnc(Br)s1)c1csc(-c2ccc3c(c2)CCO3)n1 [Compound 67, N-(5-Bromo-1,3,4-thiadiazol-2-yl)-2-(2,3-dihydro-1-benzofuran-5-yl)-1,3-thiazole-4-carboxamide]	65.9 nM	
O=C(Nc1nc(-c2cccc(F)c2)n[nH]1)c1csc(-c2ccc3c(c2)CCO3)n1 [Compound 68, 2-(2,3-Dihydro-1-benzofuran-5-yl)-N-[3-(3-fluorophenyl)-1H-1,2,4-triazol-5-yl]-1,3-thiazole-4-carboxamide]	67.1 nM	
Cc1nsc(NC(=O)c2csc(-c3ccc4c(c3)CCO4)n2)n1 [Compound 69, 2-(2,3-Dihydro-1-benzofuran-5-yl)-N-(3-methyl-1,2,4-thiadiazol-5-yl)-1,3-thiazole-4-carboxamide]	72.6 nM	
Nc1nc(NC(=O)c2csc(-c3ccc4c(c3)CCO4)n2)ns1 [Compound 70, N-(5-Amino-1,2,4-thiadiazol-3-yl)-2-(2,3-dihydro-1-benzofuran-5-yl)-1,3-thiazole-4-carboxamide]	73.4 nM	
O=C(Nc1nncs1)c1csc(-c2ccc3c(c2)CCO3)n1 [Compound 71, 2-(2,3-Dihydro-1-benzofuran-5-yl)-N-(1,3,4-thiadiazol-2-yl)-1,3-thiazole-4-carboxamide]	76.6 nM	
Cc1csc(NC(=O)c2csc(-c3ccc4c(c3)CCO4)n2)n1 [Compound 72, 2-(2,3-Dihydro-1-benzofuran-5-yl)-N-(4-methyl-1,3-thiazol-2-yl)-1,3-thiazole-4-carboxamide]	111 nM	
O=C(Nc1ncns1)c1csc(-c2ccc3c(c2)CCO3)n1 [Compound 73, 2-(2,3-Dihydro-1-benzofuran-5-yl)-N-(1,2,4-thiadiazol-5-yl)-1,3-thiazole-4-carboxamide]	114 nM	
Cc1nc(NC(=O)c2csc(-c3ccc4c(c3)CCO4)n2)sc1C [Compound 74, 2-(2,3-Dihydro-1-benzofuran-5-yl)-N-(dimethyl-1,3-thiazol-2-yl)-1,3-thiazole-4-carboxamide]	125 nM	
O=C(Nc1nc2ccccc2s1)c1csc(-c2ccc3c(c2)CCO3)n1 [Compound 75, N-(1,3-Benzothiazol-2-yl)-2-(2,3-dihydro-1-benzofuran-5-yl)-1,3-thiazole-4-carboxamide]	135 nM	
CC(=O)c1csc(NC(=O)c2csc(-c3ccc4c(c3)CCO4)n2)n1 [Compound 76, N-(4-Acetyl-1,3-thiazol-2-yl)-2-(2,3-dihydro-1-benzofuran-5-yl)-1,3-thiazole-4-carboxamide]	185 nM	
CSc1nc(NC(=O)c2csc(-c3ccc4c(c3)CCO4)n2)ns1 [Compound 77, 2-(2,3-Dihydro-1-benzofuran-5-yl)-N-[5-(methylsulfanyl)-1,2,4-thiadiazol-3-yl]-1,3-thiazole-4-carboxamide]	420 nM	
CCOC(=O)c1csc(NC(=O)c2csc(-c3ccc4c(c3)CCO4)n2)n1 [Compound 78, Ethyl 2-[2-(2,3-dihydro-1-benzofuran-5-yl)-1,3-thiazole-4-amido]-1,3-thiazole-4-carboxylate]	410 nM	
O=C(Nc1ncco1)c1csc(-c2ccc3c(c2)CCO3)n1 [Compound 79, 2-(2,3-Dihydro-1-benzofuran-5-yl)-N-(1,3-oxazol-2-yl)-1,3-thiazole-4-carboxamide]	766 nM	
Ethyl 5-(2-(2,3-dihydrobenzofuran-5-yl)thiazole-4-carboxamido)-4H-1,2,4-triazole-3-carboxylate [Compound 20]	109 nM	

These reach a lower IC50 [1]. Values come first.

IC50 [1]	Compound	IC50 [2]
1.38 nM	N#Cc1ccc2[nH]c(NC(=O)c3csc(-c4ccc5c(c4)CCO5)n3)nc2c1 [Compound 1, N-(5-Cyano-1H-benzo[d]imidazol-2-yl)-2-(2,3-dihydrobenzofuran-5-yl)thiazole-4-carboxamide]	1000 to 3000 nM
48.2 nM	O=C(Nc1nc2cc(Cl)c(F)cc2[nH]1)c1csc(-c2ccc3c(c2)CCO3)n1 [Compound 2, N-(5-Chloro-6-fluoro-1H-benzo[d]imidazol-2-yl)-2-(2,3-dihydrobenzofuran-5-yl)thiazole-4-carboxamide]	1000 to 3000 nM
1.49 nM	CS(=O)(=O)c1ccc2[nH]c(NC(=O)c3csc(-c4ccc5c(c4)CCO5)n3)nc2c1 [Compound 3, 2-(2,3-Dihydrobenzofuran-5-yl)-N-(5-(methylsulfonyl)-1H-benzo[d]imidazol-2-yl)thiazole-4-carboxamide]	< 1000 nM
13.9 nM	COc1ccc2[nH]c(NC(=O)c3csc(-c4ccc5c(c4)CCO5)n3)nc2c1 [Compound 4, 2-(2,3-Dihydrobenzofuran-5-yl)-N-(5-methoxy-1H-benzo[d]imidazol-2-yl)thiazole-4-carboxamide]	3000 to 10000 nM
1.9 nM	O=C(Nc1nc2cc(Cl)ccc2[nH]1)c1csc(-c2ccc3c(c2)CCO3)n1 [Compound 6, N-(5-Chloro-1H-benzo[d]imidazol-2-yl)-2-(2,3-dihydrobenzofuran-5-yl)thiazole-4-carboxamide]	1000 to 3000 nM
1.74 nM	CN(C)C(=O)c1ccc2[nH]c(NC(=O)c3csc(-c4ccc5c(c4)CCO5)n3)nc2c1 [Compound 7, 2-(2,3-Dihydrobenzofuran-5-yl)-N-(5-(dimethylcarbamoyl)-1H-benzo[d]imidazol-2-yl)thiazole-4-carboxamide]	< 1000 nM
3.11 nM	O=C(Nc1nc2cc(C(=O)N3CCN(CC4CCCO4)CC3)ccc2[nH]1)c1csc(-c2ccc3c(c2)CCO3)n1 (stereo not shown) [Compound 8, 2-(2,3-Dihydrobenzofuran-5-yl)-N-(5-(4-((tetrahydrofuran-2-yl)methyl)piperazine-1-carbonyl)-1H-benzo[d]imidazol-2-yl)thiazole-4-carboxamide]	< 1000 nM
3.63 nM	CCOC(=O)c1ccc2[nH]c(NC(=O)c3csc(-c4ccc5c(c4)CCO5)n3)nc2c1 [Compound 9, Ethyl 2-(2-(2,3-dihydrobenzofuran-5-yl)thiazole-4-carboxamido)-1H-benzo[d]imidazole-5-carboxylate]	< 1000 nM
3.72 nM	O=C(Nc1nc2cc(C(=O)N3CCOCC3)ccc2[nH]1)c1csc(-c2ccc3c(c2)CCO3)n1 [Compound 10, 2-(2,3-Dihydrobenzofuran-5-yl)-N-(5-(morpholine-4-carbonyl)-1H-benzo[d]imidazol-2-yl)thiazole-4-carboxamide]	< 1000 nM
50.5 nM	Cc1cc(NC(=O)c2csc(-c3ccc4c(c3)CCO4)n2)n[nH]1 [Compound 66, 2-(2,3-Dihydro-1-benzofuran-5-yl)-N-(5-methyl-1H-pyrazol-3-yl)-1,3-thiazole-4-carboxamide]	
